From patent US20110159603A1, “FLUORESCENT PROBE SPECIFIC TO HYDROGEN PEROXIDE” (THE UNIVERSITY OF TOKYO, priority 2008, published 2011)

Tests used:
[1] = Fluorescence spectrum change on adding hydrogen peroxide; conditions: excitation 490 nm
Description: [The source words this procedure for another target and reports this target under the same test.] (§1) The addition of hydroxyl radical (10 μM) to the test system was performed by the method of adding hydrogen peroxide (10 μM) to a solution of Compound 5, and then immediately adding a solution of iron(II) perchlorate (10 μM) in purified water to the mixture to generate hydroxyl radicals by the Fenton reaction.

[2] = Relative fluorescence intensity at 520 nm on adding other reactive oxygen species; conditions: hydroxyl radical 10 μM, peroxynitrite 10 μM, hypochlorite ion 10 μM, NOC13 100 μM or EP-1 100 μM; compound 1 μM; excitation 490 nm
Description: as §1

[3] = Relative fluorescence intensity with superoxide from hypoxanthine/xanthine oxidase (HPX/x.o.) system; conditions: compound 10 μM
RAW264.7 cells = experiment: Detection of hydrogen peroxide in live cells by fluorescence microscopy; type: cell-based; conditions: RAW264.7 cells stimulated with LPS 50 μg/ml and IFN-γ 100 unit/ml for 12 hours vs non-stimulated; observed 2 hours after loading; excitation 470 to 495 nm, fluorescence 510 to 550 nm
Description: It was confirmed that Compound 5 was also usable for detection of hydrogen peroxide in live cells. The RAW264.7 cells were stimulated with a lipopolysaccharide (LPS, 50 μg/ml) and interferon-γ (IFN-γ, 100 unit/ml) for 12 hours, then a diacetylated compound of Compound 5 was loaded on the cells, and 2 hours later, the cells were observed under a fluorescence microscope using the U-MNIBA2 filter set produced by Olympus Corporation (excitation wavelength: 470 to 495 nm, fluorescence wavelength: 510 to 550 nm) (FIG. 2).

SMILES: N#Cc1ccc(C(=O)C(=O)c2ccc(-c3c4ccc(=O)cc-4oc4cc(O)ccc34)c(C(=O)O)c2)cc1 [Compound 5, 5-(4-cyanobenzoyl)carbonylfluorescein]
- change of the fluorescence spectrum over time ([1]; hydrogen peroxide 100 μM added to compound 1 μM, after 5, 15, 30 and 60 minutes): increase of fluorescence intensity was observed over time
- relative fluorescence intensity at 520 nm ([1]; hydrogen peroxide 100 μM for 30 minutes, compound 1 μM): increase of fluorescence intensity was observed only when hydrogen peroxide was added
- relative fluorescence intensity at 520 nm [2]: no increase of fluorescence intensity
- relative fluorescence intensity at 520 nm ([3]; HPX/x.o. system with SOD 60 Unit/L added): no significant change in the degree of the increase of fluorescence intensity
- relative fluorescence intensity at 520 nm ([3]; HPX/x.o. system with catalase 100 Unit/L added): reduced to around the level of the control
- relative fluorescence intensity at 520 nm ([3]; superoxide 10 μM, HPX/x.o. system (x.o. 2.38 mUnit/L, HPX 10 μM), versus control): higher in the case using the HPX/x.o. system than in the case of the control
- fluorescence intensity in cells (RAW264.7 cells): higher when loading Compound 5 on the stimulated cells (B) than on the non-stimulated cells (A)
